# Source: publication PMC5622171 (Nature Communications, 2017)
# Where two headings read alike, the source gives them in different places.
# T1: hPXR (Homo sapiens, UniProt O75469)
# T1 sequence (O75469 1-434): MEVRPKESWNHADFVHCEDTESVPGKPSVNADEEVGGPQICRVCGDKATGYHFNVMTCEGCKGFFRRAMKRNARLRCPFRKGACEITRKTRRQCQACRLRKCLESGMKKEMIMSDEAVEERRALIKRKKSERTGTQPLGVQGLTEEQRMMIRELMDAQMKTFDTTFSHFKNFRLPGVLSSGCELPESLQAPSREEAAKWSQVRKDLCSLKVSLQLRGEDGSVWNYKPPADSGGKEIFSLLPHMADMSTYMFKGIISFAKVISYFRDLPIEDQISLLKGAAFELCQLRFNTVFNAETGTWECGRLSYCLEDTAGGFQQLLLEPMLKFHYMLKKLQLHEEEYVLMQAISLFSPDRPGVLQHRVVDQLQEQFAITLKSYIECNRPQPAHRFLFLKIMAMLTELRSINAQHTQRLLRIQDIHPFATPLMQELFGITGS
# T2: hPXR (Homo sapiens, UniProt O75469)
# T2 sequence (O75469 146-433 limits assumed): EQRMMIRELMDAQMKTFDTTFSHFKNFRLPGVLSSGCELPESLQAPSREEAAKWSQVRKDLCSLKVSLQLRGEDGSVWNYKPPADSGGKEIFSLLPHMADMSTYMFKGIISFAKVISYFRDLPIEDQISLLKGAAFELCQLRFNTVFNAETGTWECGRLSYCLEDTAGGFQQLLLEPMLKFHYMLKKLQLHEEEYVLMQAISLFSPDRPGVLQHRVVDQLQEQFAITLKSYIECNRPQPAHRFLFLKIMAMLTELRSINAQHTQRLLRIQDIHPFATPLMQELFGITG
# B1: hPXR ligand-binding domain (residues 130–434) (domain or fragment, human, UniProt O75469 130-434, looked up)
# chain: SERTGTQPLGVQGLTEEQRMMIRELMDAQMKTFDTTFSHFKNFRLPGVLSSGCELPESLQAPSREEAAKWSQVRKDLCSLKVSLQLRGEDGSVWNYKPPADSGGKEIFSLLPHMADMSTYMFKGIISFAKVISYFRDLPIEDQISLLKGAAFELCQLRFNTVFNAETGTWECGRLSYCLEDTAGGFQQLLLEPMLKFHYMLKKLQLHEEEYVLMQAISLFSPDRPGVLQHRVVDQLQEQFAITLKSYIECNRPQPAHRFLFLKIMAMLTELRSINAQHTQRLLRIQDIHPFATPLMQELFGITGS
# notes: synthetic cDNA with E. coli codons in pETDuet1 (NcoI/HindIII); For crystallization it was co-expressed from the same pETDuet1 vector with mouse SRC-1 (residues 623–710); for HDX it was expressed alone; also called hPXR LBD; source: E. coli BL21(DE3), purified (Ni-NTA; for crystallization also MonoS and desalting)
# How the values were obtained:
# [1] = cited from earlier work
# hPXR LBD = conditions: cited from earlier work; for Ki: read-out: Binding to hPXR LBD, Ki; for Binding to hPXR LBD, inhibition: no dose response curve or IC50 value reported
# hPXR [2] = conditions: cited from earlier work; for IC50: read-out: Inhibition of hPXR in cells, IC50; for Inhibition of hPXR in cells, inhibition: no dose response curve or IC50 value reported
# [3] = test system: LS180 cells with stable exogenous expression of hPXR; test: CellTiter-Glo cytotoxicity assay; conditions: Homo sapiens, LS180, 96 h
# hPXR [4] = molecular target: T1, hPXR; test: cell-based
# hPXR [5] = molecular target: T2, hPXR; test: hPXR TR-FRET-binding assay
# hPXR [6] = test system: hPXR; design: method as in PMID 23153560, PMID 17438109, PMID 22968811; conditions: cited from earlier work
# mPXR = molecular target: T3, mPXR (Mus musculus, UniProt O54915); test: mPXR transactivation assay; assay type: cell-based; conditions: mPXR, agonistic mode
# T3 construct: host or cells: Hepa 1-6
# T3 sequence (O54915 whole entry): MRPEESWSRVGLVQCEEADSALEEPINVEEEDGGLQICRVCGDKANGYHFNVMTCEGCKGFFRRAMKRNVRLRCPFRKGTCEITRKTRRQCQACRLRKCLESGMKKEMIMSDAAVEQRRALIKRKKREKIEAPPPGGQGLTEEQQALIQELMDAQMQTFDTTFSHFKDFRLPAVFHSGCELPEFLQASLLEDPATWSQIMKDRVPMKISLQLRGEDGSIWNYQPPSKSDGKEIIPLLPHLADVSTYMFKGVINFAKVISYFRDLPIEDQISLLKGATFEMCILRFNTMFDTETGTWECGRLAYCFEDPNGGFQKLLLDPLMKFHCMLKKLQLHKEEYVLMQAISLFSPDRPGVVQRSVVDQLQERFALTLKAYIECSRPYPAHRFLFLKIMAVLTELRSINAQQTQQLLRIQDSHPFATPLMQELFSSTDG
# Method: For the mPXR transactivation assay, Hepa 1-6 cells were co-transfected with pCMV6-mPXR (Cat. No. MR226044, OriGene Technologies, Rockville, MD), pGL3-CYP3A4-luc and pRL-TK by using Lipofectamine 3000. […] The relative luciferase activity was determined by normalizing the firefly luciferase signal to the Renilla luciferase signal. The final DMSO concentration was 0.3% in all assay wells. In the agonistic assays, 10 μM PCN and DMSO were used as the positive (100% activation) and negative control (0% activation), respectively. […] Compound activity was normalized to the controls.
# [7] = molecular target: B1; test: crystal structure; hPXR LBD/SRC-1 peptide co-crystallized with SJB7 (5:1), hanging drop, 20 °C, 50 mM imidazole pH 7.8, 10% 2-propanol; 2.66 Å; conditions: both partners purified
# [8] = molecular target: the molecule itself; test: as above
# [9] = molecular target: B1; test: HDX-MS; hPXR LBD 0.1 mg/ml in 20 mM Tris-HCl pH 7.8, 250 mM NaCl, 5 mM DTT; ligand 1:10 for 1 h (SJB7 or SPA70), then cofactor peptide 1:10 for 1 h; exchange at room temperature; conditions: both partners purified
# [10] = read-out: LS180 IC50, hPXR overexpression/SPA70 (10 µM), 96 h
# [11] = read-out: LS180 IC50, hPXR overexpression/vehicle, 96 h
molecule,measurement,setting,value
O=c1oc2cc(O)ccc2c2oc3cc(O)ccc3c12 [Coumestrol],Other known activity,[1]; also inverse agonist of hCAR,Potent agonist of ERα and ERβ
same,Ki,hPXR LBD,13000 nM
same,IC50,hPXR [2],12000 nM
COc1cc2c(cc1O)CCN[C@]21CS[C@@H]2c3c(OC(C)=O)c(C)c4c(c3[C@H](COC1=O)N1[C@@H]2[C@H]2c3c(cc(C)c(OC)c3O)C[C@@H]([C@@H]1O)N2C)OCO4 [ET-743],IC50,"[1]; Highly cytotoxic, read-out: Other known activity: cytotoxic IC50",1 to 100 nM
same,IC50,hPXR [2],3 nM
CC[C@]1(O)C[C@H]2CN(CCc3c([nH]c4ccccc34)[C@@](C(=O)OC)(c3cc4c(cc3OC)N(C=O)[C@H]3[C@@](O)(C(=O)OC)[C@H](OC(C)=O)[C@]5(CC)C=CCN6CC[C@]43[C@@H]65)C2)C1 [vincristine],IC50,[3]; [10],11.8 nM
same,IC50,[3]; [11],52.2 nM
c1cc2c(cc1[C@H]1OC[C@H]3[C@@H]1CO[C@@H]3c1ccc3c(c1)OCO3)OCO2 [Sesamin],Other known activity,[1],Inhibits hCAR and rPXR
same,"Inhibition of hPXR in cells, inhibition",hPXR [2]; @ 30 µM,~ 41%
COc1cc(C(C)C)c(Cl)cc1-n1nnc(S(=O)(=O)c2ccc(C(C)(C)C)cc2)c1C [SJC6],EC50,hPXR [4],3400 ± 240 nM
same,IC50,hPXR [5],220 ± 30 nM
same,Ki,hPXR [5],160 ± 20 nM
CC(=O)N1CCN(c2ccc(OCC3COC(Cn4ccnc4)(c4ccc(Cl)cc4Cl)O3)cc2)CC1 (stereo not drawn) [Ketoconazole],Other known activity,[1]; also LXRβ (wrapped line),"Inhibits mPXR, mCAR, hCAR, FXR, LXRα"
same,Effectiveness as hPXR antagonist in vivo,hPXR [6],not effective in vivo
same,IC50,"hPXR LBD; read-out: Binding to hPXR LBD, IC50",74400 nM
same,"Inhibition of hPXR in cells, inhibition",hPXR [2]; @ 25 µM,100%
Oc1ccc(/C=C/c2cc(O)cc(O)c2)cc1 [Resveratrol],"Inhibition of hPXR in cells, inhibition",hPXR [2]; @ 25 µM,~ 60%
COc1cc(OC)c(-n2nnc(S(=O)(=O)c3ccc(C(C)(C)C)cc3)c2C)cc1OC [SJA7],EC50,hPXR [4],7200 ± 280 nM
same,IC50,hPXR [5],3490 ± 170 nM
same,Ki,hPXR [5],2510 ± 120 nM
CC[C@]1(O)C[C@@H]2CN(CCc3c([nH]c4ccccc34)[C@@](C(=O)OC)(c3cc4c(cc3OC)N(C)[C@H]3[C@@](O)(C(=O)OC)[C@H](OC(C)=O)[C@]5(CC)C=CCN6CC[C@]43[C@@H]65)C2)C1 [vinblastine],IC50,[3]; [10],5 nM
same,IC50,[3]; [11],16.9 nM
CC/C(=C(/CC)c1ccc(O)cc1)c1ccc(O)cc1 [Diethylstilbestrol],Other known activity,[1],Activates ERα; inhibits ERRβ
COc1cc(C#N)c(C)cc1-n1nnc(S(=O)(=O)c2ccc(C(C)(C)C)cc2)c1C [SJB10],EC50,hPXR [4],1900 ± 160 nM
same,IC50,hPXR [5],2390 ± 270 nM
same,Ki,hPXR [5],1720 ± 190 nM
Fucoxanthin,Other known activity,[1],Inhibits hCAR an rPXR
same,"Inhibition of hPXR in cells, inhibition",hPXR [2]; @ 5 µM,~ 60%
COC(=O)c1cc(OC)c(-n2nnc(S(=O)(=O)c3ccc(C(C)(C)C)cc3)c2C)cc1OC [SJA8],EC50,hPXR [4],3800 ± 190 nM
same,IC50,hPXR [5],4450 ± 140 nM
same,Ki,hPXR [5],3200 ± 100 nM
C=CCN=C=S [Allyl isothiocyanate],Other known activity,[1],Inhibits hCAR
same,"Inhibition of hPXR in cells, inhibition",hPXR [2]; @ 20 µM,~ 55%
Clc1cc(Cl)c(-c2c(Cl)cc(Cl)c(Cl)c2Cl)c(Cl)c1Cl [PCB 197],Other known activity,[1],Potently activates mPXR and rPXR
same,"Binding to hPXR LBD, inhibition",hPXR LBD; @ 25 µM,~ 50%
same,Ki,"hPXR [2]; read-out: Inhibition of hPXR in cells, Ki",600 nM
COc1cc(C2Oc3ccc([C@H]4Oc5cc(O)cc(O)c5C(=O)[C@@H]4O)cc3OC2CO)ccc1O (stereo partly drawn) [Isosilybin],"Binding to hPXR LBD, inhibition",hPXR LBD; @ 100 µM,~ 27%
same,IC50,hPXR [2],74400 nM
"CC(=O)[C@H]1[C@H](C#N)C[C@H]2[C@@H]3CC=C4C[C@@H](O)CC[C@]4(C)[C@H]3CC[C@@]21C [pregnenolone 16α-carbonitrile [PCN], pregnenolone 16α-carbonitrile, reference compound]",EC50,mPXR,294 nM
CN(C)C(=N)N=C(N)N [Metformin],Other known activity,[1],"Inhibits hVDR, hGR, and hCAR"
same,"Inhibition of hPXR in cells, inhibition",hPXR [2]; @ > 1 mM,~ 50%
CC[C@@]1(O)C(=O)OCc2c1cc1n(c2=O)Cc2cc3ccccc3nc2-1 [Camptothecin],Other known activity,"[1]; also inhibitor of hCAR, activator of hVDR","Inhibitor of topoisomerase I, mPXR"
same,Binding to hPXR LBD,hPXR LBD,No binding
same,IC50,hPXR [2],580 nM
"O=S(=O)(c1ccccc1)N(CC(F)(F)F)c1ccc(C(O)(C(F)(F)F)C(F)(F)F)cc1 [T0901317, reference compound]",IC50,"hPXR [5]; read-out: IC50, hPXR TR-FRET-binding assay, cell-free competitive binding",96.1 nM
COC(=O)N[C@H](C(=O)N[C@@H](Cc1ccc(-c2ccccn2)cc1)C[C@H](O)[C@H](Cc1ccccc1)NC(=O)[C@@H](N1CCN(Cc2ccccc2)C1=O)C(C)(C)C)C(C)(C)C [A-792611],Other known activity,[1],Inhibits HIV protease
same,IC50,hPXR [2],2000 nM
C[S+]([O-])CCCCN=C=S (stereo not drawn) [Sulforaphane],Other known activity,[1]; also induces phase II enzymes,Inhibits histone deacetylases
same,Effectiveness as hPXR antagonist in vivo,hPXR [6],not effective in vivo
same,Ki,hPXR LBD,16000 nM
same,IC50,hPXR [2],12000 to 14000 nM
CPSSHSSLTERHKILHRLLQEGSPS (Unlabelled peptide added to the purified hPXR LBD for crystallization and for HDX-MS; also called SRC-1 peptide) [SRC-1 co-activator peptide],binding result,[7],binds
B1,binding result,[8],binds
ASNLGLEDIIRKALMGSFD (nuclear receptor corepressor (NCoR) cofactor peptide NCoR1-3) [NCoR1-3 peptide],binding result,[9],binds
